# Active and inactive are the calls of the source. The rule behind the calls is not given here.
# What was measured:
# A549 [1] = experiment: Inhibition of FAK/AKT/ROCK in human A549 cells assessed as reduction in osteopontin-induced cofilin phosphorylation after 24 hrs by Western blot method; format: cell-based
# Homo sapiens [2] = species on record: Homo sapiens; experiment: Inhibition of FAK/AKT/ROCK in human H1299 cells assessed as reduction in osteopontin-induced cell invasion at 1 to 2 uM preincubated for 30 mins followed by osteopontin addition measured after 24 hrs by Diff-quick staining based matrigel-mediated Boyden chamber assay
# A549 [3] = experiment: Inhibition of FAK/AKT/ROCK in human A549 cells assessed as reduction in osteopontin-induced cell motility at 2 uM preincubated for 30 mins followed by osteopontin addition measured after 24 hrs by Diff-quick staining based matrigel-mediated Boyden chamber assay relative to control
# [4] = target: Focal adhesion kinase 1 (Homo sapiens) (UniProt Q05397); experiment: Inhibition of osteopontin-induced FAK phosphorylation in human A549 cells at 1 to 2 uM after 15 mins by Western blot method; format: cell-based
# A549 [5] = experiment: Anti-invasive activity in human A549 cells assessed as reduction in osteopontin-induced ROCK1 expression after 24 hrs by Western blot method; format: functional, cell-based
# A549 [6] = experiment: Effect on total LIMK2 expression level in human A549 cells at 1 to 2 uM after 24 hrs by Western blot method; format: ADME, cell-based; conditions: a549, 24 h
# A549 [7] = experiment: Inhibition of FAK/AKT/ROCK in human A549 cells assessed as reduction in osteopontin-induced cell motility at 1 uM preincubated for 30 mins followed by osteopontin addition measured after 24 hrs by Diff-quick staining based matrigel-mediated Boyden chamber assay relative to control
# A549 [8] = experiment: Effect on total AKT expression level in human A549 cells at 1 to 2 uM after 15 mins by Western blot method; format: ADME, cell-based; conditions: a549, 0.25 h
# A549 [9] = experiment: Inhibition of FAK/AKT/ROCK in human A549 cells assessed as reduction in osteopontin-induced lamellipodia formation at 2 uM after 24 hrs by rhodamine phalloidin/DAPI staining based confocal microscopic analysis; format: cell-based
# [10] = target: RAC-alpha serine/threonine-protein kinase (Homo sapiens) (UniProt P31749); experiment: Inhibition of osteopontin-induced AKT phosphorylation in human A549 cells at 1 to 2 uM after 15 mins by Western blot method; format: cell-based
# A549 [11] = experiment: Inhibition of FAK/AKT/ROCK in human A549 cells assessed as reduction in osteopontin-induced LIMK1/2 phosphorylation after 24 hrs by Western blot method; format: cell-based
# [12] = Cytotoxicity against human A549 cells after 24 hrs by MTT assay; format: cell-based; conditions: read-out: MNCC
# A549 [13] = experiment: Effect on total cofilin protein expression level in human A549 cells at 1 to 2 uM after 24 hrs by Western blot method; format: ADME, cell-based; conditions: a549, 24 h
# A549 [14] = experiment: Effect on total FAK expression levels in human A549 cells at 1 to 2 uM measured after 15 mins by Western blot method; format: ADME, cell-based; conditions: a549, 0.25 h
# A549 [15] = experiment: Inhibition of FAK/AKT/ROCK in human A549 cells assessed as reduction in osteopontin-induced cell invasion at 2 uM preincubated for 30 mins followed by osteopontin addition measured after 24 hrs by Diff-quick staining based matrigel-mediated Boyden chamber assay relative to control
# A549 [16] = experiment: Cytotoxicity against human A549 cells assessed as reduction in cell viability at 2 to 8 uM after 24 hrs by MTT assay; format: cell-based; conditions: a549, 24 h
# A549 [17] = experiment: Inhibition of FAK/AKT/ROCK in human A549 cells assessed as reduction in osteopontin-induced cell invasion at 1 uM preincubated for 30 mins followed by osteopontin addition measured after 24 hrs by Diff-quick staining based matrigel-mediated Boyden chamber assay relative to control
# A549 [18] = experiment: Anticancer activity against human A549 cells xenografted in BalB/c nude mouse assessed as reduction in osteopontin-induced lung metastasis at 5 mg/kg, ip administered once daily for 8 weeks by India ink staining based method; format: functional, organism-based
# Mus musculus = experiment: Toxicity in BalB/c nude mouse assessed as change in body weight at 5 mg/kg, ip administered once daily for 8 weeks measured every week of compound dosing; format: organism-based; conditions: in vivo, 1344 h
# Homo sapiens [19] = species on record: Homo sapiens; experiment: Inhibition of FAK/AKT/ROCK in human H1299 cells assessed as reduction in osteopontin-induced cell motility at 1 to 2 uM preincubated for 30 mins followed by osteopontin addition measured after 24 hrs by Diff-quick staining based matrigel-mediated Boyden chamber assay
# Sequence of RAC-alpha serine/threonine-protein kinase (Homo sapiens) (P31749 whole entry): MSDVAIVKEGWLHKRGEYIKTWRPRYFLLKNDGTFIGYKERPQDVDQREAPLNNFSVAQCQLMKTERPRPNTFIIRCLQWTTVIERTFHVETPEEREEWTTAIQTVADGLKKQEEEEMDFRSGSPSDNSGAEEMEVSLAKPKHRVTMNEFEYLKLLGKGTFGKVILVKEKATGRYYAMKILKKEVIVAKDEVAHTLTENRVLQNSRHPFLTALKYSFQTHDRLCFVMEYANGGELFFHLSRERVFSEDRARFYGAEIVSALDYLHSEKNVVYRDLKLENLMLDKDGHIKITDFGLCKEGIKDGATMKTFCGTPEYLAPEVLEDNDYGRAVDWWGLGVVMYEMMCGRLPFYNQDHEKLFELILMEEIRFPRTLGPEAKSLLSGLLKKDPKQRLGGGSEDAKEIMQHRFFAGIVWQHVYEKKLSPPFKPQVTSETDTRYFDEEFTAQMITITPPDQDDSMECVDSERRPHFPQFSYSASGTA
# Sequence of Focal adhesion kinase 1 (Homo sapiens) (Q05397 2-1052 limits assumed): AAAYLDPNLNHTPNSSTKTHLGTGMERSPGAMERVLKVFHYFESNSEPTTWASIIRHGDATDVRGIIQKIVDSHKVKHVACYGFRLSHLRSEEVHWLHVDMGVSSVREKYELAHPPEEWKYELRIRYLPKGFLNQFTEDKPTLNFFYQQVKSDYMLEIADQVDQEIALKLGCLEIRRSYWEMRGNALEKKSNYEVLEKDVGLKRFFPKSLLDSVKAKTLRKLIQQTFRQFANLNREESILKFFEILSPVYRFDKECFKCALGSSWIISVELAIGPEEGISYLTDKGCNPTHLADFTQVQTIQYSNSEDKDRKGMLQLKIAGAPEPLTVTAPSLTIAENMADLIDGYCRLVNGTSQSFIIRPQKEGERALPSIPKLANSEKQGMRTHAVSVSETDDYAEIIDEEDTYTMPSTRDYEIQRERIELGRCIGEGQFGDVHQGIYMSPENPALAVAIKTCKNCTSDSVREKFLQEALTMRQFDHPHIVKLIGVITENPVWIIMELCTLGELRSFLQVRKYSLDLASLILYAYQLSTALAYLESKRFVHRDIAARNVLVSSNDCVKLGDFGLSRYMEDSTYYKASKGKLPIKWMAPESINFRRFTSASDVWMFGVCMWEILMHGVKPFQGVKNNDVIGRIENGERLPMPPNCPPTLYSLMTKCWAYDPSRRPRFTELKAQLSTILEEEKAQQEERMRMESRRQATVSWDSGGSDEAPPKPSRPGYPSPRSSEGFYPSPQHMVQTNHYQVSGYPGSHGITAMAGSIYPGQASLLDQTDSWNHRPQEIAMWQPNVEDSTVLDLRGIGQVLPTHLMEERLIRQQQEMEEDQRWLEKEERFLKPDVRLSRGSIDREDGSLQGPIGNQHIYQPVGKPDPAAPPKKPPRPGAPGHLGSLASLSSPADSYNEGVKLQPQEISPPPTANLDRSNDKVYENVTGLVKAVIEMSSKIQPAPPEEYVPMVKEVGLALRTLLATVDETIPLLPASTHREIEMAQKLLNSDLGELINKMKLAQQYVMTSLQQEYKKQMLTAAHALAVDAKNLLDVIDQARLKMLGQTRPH
smiles,measurement,setting,value
CC1=CC(=O)c2c(O)cccc2C1=O [PLUMBAGIN],inhibition,A549 [1],Dose-dependent effect
same,inhibition,Homo sapiens [2],Active
same,inhibition,A549 [3],74%
same,inhibition,[4],Active
same,Activity,A549 [5],Dose-dependent effect
same,Activity,A549 [6],Non-Toxic
same,inhibition,A549 [7],52%
same,Activity,A549 [8],Non-Toxic
same,inhibition,A549 [9],Active
same,inhibition,[10],Active
same,inhibition,A549 [11],Dose-dependent effect
same,MNTC at 24 h,[12],≤ 2000 nM
same,Activity,A549 [13],Non-Toxic
same,Activity,A549 [14],Non-Toxic
same,inhibition,A549 [15],67%
same,Activity,A549 [16],Dose-dependent effect
same,inhibition,A549 [17],38%
same,Activity,A549 [18],Active
same,Activity,Mus musculus,Non-Toxic
same,inhibition,Homo sapiens [19],Active

# — ChEMBL document CHEMBL4011611, “Plumbagin reduces osteopontin-induced invasion through inhibiting the Rho-associated kinase signaling pathway in A549 cells and suppresses osteopontin-induced lung metastasis in BalB/c mice” (Bioorg Med Chem Lett, 2017)
